Laboratory results reported in PubChem BioAssay (NCI).
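Briefly, cells in 96-well plates were exposed to five compound concentrations for 48 h, and endpoints were estimated by linear interpolation. At the TGI there is no net growth.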

Legend:
Assay in all cases: growth of human tumour cells (NCI), 48 h
M14 melanoma = tested on: M14 melanoma
SK-MEL-5 melanoma = tested on: SK-MEL-5 melanoma
MCF7 breast = tested on: MCF7 breast
UACC-62 melanoma = tested on: UACC-62 melanoma
DU-145 prostate = tested on: DU-145 prostate
EKVX NSCLC = tested on: EKVX NSCLC
NCI/ADR-RES ovarian = tested on: NCI/ADR-RES ovarian
A549 NSCLC = tested on: A549 NSCLC
OVCAR-5 ovarian = tested on: OVCAR-5 ovarian
SN12C renal = tested on: SN12C renal
NCI-H23 lung = tested on: NCI-H23 lung
HL-60(TB) leukemia = tested on: HL-60(TB) leukemia
U251 CNS = tested on: U251 CNS
HT29 colon = tested on: HT29 colon
HOP-62 NSCLC = tested on: HOP-62 NSCLC
RPMI-8226 leukemia = tested on: RPMI-8226 leukemia
KM12 colon = tested on: KM12 colon
SR leukemia = tested on: SR leukemia
CCRF-CEM leukemia = tested on: CCRF-CEM leukemia
UO-31 renal = tested on: UO-31 renal
SNB-19 CNS = tested on: SNB-19 CNS
MDA-N = tested on: MDA-N
SF-295 CNS = tested on: SF-295 CNS
SF-268 CNS = tested on: SF-268 CNS
A498 renal = tested on: A498 renal
SF-539 CNS = tested on: SF-539 CNS
NCI-H226 lung = tested on: NCI-H226 lung
UACC-257 melanoma = tested on: UACC-257 melanoma
HCC-2998 colon = tested on: HCC-2998 colon
MOLT-4 leukemia = tested on: MOLT-4 leukemia
HCT-15 colon = tested on: HCT-15 colon
HS 578T breast = tested on: HS 578T breast
MDA-MB-435 = tested on: MDA-MB-435
SK-MEL-2 melanoma = tested on: SK-MEL-2 melanoma
OVCAR-4 ovarian = tested on: OVCAR-4 ovarian
OVCAR-8 ovarian = tested on: OVCAR-8 ovarian
HCT-116 colon = tested on: HCT-116 colon
SW-620 colon = tested on: SW-620 colon
MALME-3M melanoma = tested on: MALME-3M melanoma
HOP-92 NSCLC = tested on: HOP-92 NSCLC
TK-10 renal = tested on: TK-10 renal
COLO 205 colon = tested on: COLO 205 colon
OVCAR-3 ovarian = tested on: OVCAR-3 ovarian
MDA-MB-231 breast = tested on: MDA-MB-231 breast
K-562 leukemia = tested on: K-562 leukemia
RXF 393 renal = tested on: RXF 393 renal
SK-OV-3 ovarian = tested on: SK-OV-3 ovarian
SK-MEL-28 melanoma = tested on: SK-MEL-28 melanoma
PC-3 prostate = tested on: PC-3 prostate
NCI-H460 lung = tested on: NCI-H460 lung
ACHN renal = tested on: ACHN renal
786-0 renal = tested on: 786-0 renal
LOX IMVI melanoma = tested on: LOX IMVI melanoma
IGROV1 ovarian = tested on: IGROV1 ovarian
CAKI-1 renal = tested on: CAKI-1 renal
SNB-75 CNS = tested on: SNB-75 CNS
T-47D breast = tested on: T-47D breast

## Cc1nc2c([nH]c1C)c(O)cc1c3c(nc12)C(=O)CCC3
M14 melanoma
  TGI: > 100 µM
SK-MEL-5 melanoma
  TGI: > 100 µM
MCF7 breast
  TGI: 4.35 µM
UACC-62 melanoma
  TGI: 52.6 µM
DU-145 prostate
  TGI: > 100 µM
EKVX NSCLC
  TGI: > 100 µM
NCI/ADR-RES ovarian
  TGI: > 100 µM
A549 NSCLC
  TGI: 14.1 µM
OVCAR-5 ovarian
  TGI: > 100 µM
SN12C renal
  TGI: > 100 µM
NCI-H23 lung
  TGI: > 100 µM
HL-60(TB) leukemia
  TGI: > 100 µM
U251 CNS
  TGI: 20.9 µM
HT29 colon
  TGI: 11.7 µM
HOP-62 NSCLC
  TGI: > 100 µM
RPMI-8226 leukemia
  TGI: 7.05 µM
KM12 colon
  TGI: > 100 µM
SR leukemia
  TGI: 8.77 µM
CCRF-CEM leukemia
  TGI: > 100 µM
UO-31 renal
  TGI: 84.2 µM
SNB-19 CNS
  TGI: > 100 µM
MDA-N
  TGI: 3.1 µM
SF-295 CNS
  TGI: 90.8 µM
SF-268 CNS
  TGI: 96.2 µM
A498 renal
  TGI: > 100 µM
SF-539 CNS
  TGI: 13.6 µM
NCI-H226 lung
  TGI: > 100 µM
UACC-257 melanoma
  TGI: > 100 µM
HCC-2998 colon
  TGI: 7.88 µM
MOLT-4 leukemia
  TGI: > 100 µM
HCT-15 colon
  TGI: > 100 µM
HS 578T breast
  TGI: 83 µM
MDA-MB-435
  TGI: 2.05 µM
SK-MEL-2 melanoma
  TGI: 8.92 µM
OVCAR-4 ovarian
  TGI: 45.4 µM
OVCAR-8 ovarian
  TGI: 8.25 µM
HCT-116 colon
  TGI: > 100 µM
SW-620 colon
  TGI: > 100 µM
MALME-3M melanoma
  TGI: > 100 µM
HOP-92 NSCLC
  TGI: > 100 µM
TK-10 renal
  TGI: 26.3 µM
COLO 205 colon
  TGI: 5.99 µM
OVCAR-3 ovarian
  TGI: 7.31 µM
MDA-MB-231 breast
  TGI: > 100 µM
K-562 leukemia
  TGI: > 100 µM
RXF 393 renal
  TGI: 3.68 µM
SK-OV-3 ovarian
  TGI: 38.1 µM
SK-MEL-28 melanoma
  TGI: > 100 µM
PC-3 prostate
  TGI: > 100 µM
NCI-H460 lung
  TGI: > 100 µM
ACHN renal
  TGI: > 100 µM
786-0 renal
  TGI: > 100 µM
LOX IMVI melanoma
  TGI: > 100 µM

## O=C1C(=O)c2c(O)ccc(O)c2C(O)=C1Cl
M14 melanoma
  TGI: > 100 µM
SK-MEL-5 melanoma
  TGI: > 100 µM
MCF7 breast
  TGI: > 100 µM
UACC-62 melanoma
  TGI: > 100 µM
DU-145 prostate
  TGI: > 100 µM
EKVX NSCLC
  TGI: > 100 µM
NCI/ADR-RES ovarian
  TGI: > 100 µM
A549 NSCLC
  TGI: > 100 µM
IGROV1 ovarian
  TGI: > 100 µM
OVCAR-5 ovarian
  TGI: > 100 µM
NCI-H23 lung
  TGI: > 100 µM
HL-60(TB) leukemia
  TGI: > 100 µM
U251 CNS
  TGI: > 100 µM
HT29 colon
  TGI: > 100 µM
HOP-62 NSCLC
  TGI: > 100 µM
RPMI-8226 leukemia
  TGI: > 100 µM
KM12 colon
  TGI: > 100 µM
SR leukemia
  TGI: > 100 µM
CCRF-CEM leukemia
  TGI: > 100 µM
UO-31 renal
  TGI: > 100 µM
SNB-19 CNS
  TGI: > 100 µM
MDA-N
  TGI: > 100 µM
SF-295 CNS
  TGI: > 100 µM
SF-268 CNS
  TGI: > 100 µM
A498 renal
  TGI: > 100 µM
SF-539 CNS
  TGI: > 100 µM
UACC-257 melanoma
  TGI: > 100 µM
CAKI-1 renal
  TGI: > 100 µM
HCC-2998 colon
  TGI: > 100 µM
HCT-15 colon
  TGI: > 100 µM
OVCAR-4 ovarian
  TGI: > 100 µM
OVCAR-8 ovarian
  TGI: > 100 µM
HCT-116 colon
  TGI: > 100 µM
SW-620 colon
  TGI: > 100 µM
MALME-3M melanoma
  TGI: 78.3 µM
HOP-92 NSCLC
  TGI: > 100 µM
TK-10 renal
  TGI: > 100 µM
COLO 205 colon
  TGI: > 100 µM
OVCAR-3 ovarian
  TGI: > 100 µM
MDA-MB-231 breast
  TGI: > 100 µM
K-562 leukemia
  TGI: > 100 µM
RXF 393 renal
  TGI: > 100 µM
SNB-75 CNS
  TGI: > 100 µM
SK-MEL-28 melanoma
  TGI: > 100 µM
PC-3 prostate
  TGI: > 100 µM
NCI-H460 lung
  TGI: > 100 µM
T-47D breast
  TGI: > 100 µM
786-0 renal
  TGI: > 100 µM
